According to patent US20080207671A1, “Diagnosis and treatment of diseases arising from defects in the tuberous sclerosis pathway” (The Regents of the University of Michigan, priority 2006, published 2008):
“Also recorded” adds a separate entry of the source.

How the values were obtained:
[1] = tested on: eukaryotic elongation factor 2 (eEF2); details: Horman et al.; cited from earlier work
[2] = tested on: AMPK; details: Corton et al.; cited from earlier work
[3] = tested on: S6K and 4EBP1; details: Kimura et al.; Krause et al.; cited from earlier work
[4] = tested on: phosphorylation of S6K, S6, 4EBP1 and mTOR; experiment: Immunoblot of S6K, S6, 4EBP1 and mTOR phosphorylation in HEK293 cells under energy depletion; type: cell-based, human; details: for phosphorylation of S6K and 4EBP1: depletion of cellular ATP
Experimental: (§1) HEK293 cells were seeded and maintained in Dulbecco's modified Eagle's medium (DMEM) containing 10% fetal bovine serum (FBS). Transfection was performed in serum-free conditions using Lipofectamine reagent (Invitrogen, Carlsbad, Calif.) in accordance with the manufacturer's instructions. In brief, 4 h after transfection, the cells were recovered in DMEM containing 10% FBS for 16 h and then starved for 16-24 h. Cells were then lysed in lysis buffer (10 mM Tris-HCl at pH 7.5, 100 mM sodium chloride, 1% NP-40, 1% Triton X-100, 50 mM sodium fluoride, 2 mM EDTA, 1 mM phenyl methylsulphonyl fluoride, 10 μg ml^−1 leupeptin and 10 μg ml^−1 aprotinine) and immunoprecipitated with the indicated antibodies and protein G-Sepharose beads. Immunocomplexes were analyzed by SDS-polyacrylamide gel electrophoresis (PAGE).

[5] = tested on: TSC2; experiment: TSC2/TSC1 phosphorylation in transfected HEK293 cells (mobility shift, 32P labelling, two-dimensional phosphopeptide mapping); type: cell-based, human; details: 10 μM, added 30 minutes before 2-DG, HEK293
Experimental: as §1
HEK293 cells were cotransfected with HA-tagged TSC2, Myc-tagged TSC1 and the indicated plasmids. Cells were phosphate- and serum-starved for 4 h before incubation with 0.25 mCi ml^−1 32P-orthophosphate (ICN) for 4 h.
Cells were washed once with ice-cold PBS and lysed. HA-tagged TSC2 was immunoprecipitated, resolved by SDS-PAGE and transferred to a PVDF membrane. Phosphorylated TSC2 was visualized by autoradiography and phosphopeptide mapping was then performed. In brief, the phosphorylated TSC2 bands were excised, fixed in methanol and incubated in 500 μl of 0.5% polyvinylpyrrolidone-40 dissolved in 100 mM acetic acid for 30 min at 37° C. The sample were then digested with 20 μg of TPCK-treated trypsin (Sigma) at 37° C. in 75 mM ammonium bicarbonate buffer at pH 8.0 containing 5% acetonitrile. After digestion, samples were dried under vacuum and suspended in 10 μl of water. Samples were spotted onto a cellulose plate and first dimensional electrophoresis was performed using 1% ammonium bicarbonate buffer at pH 8.9. The plates were separated by chromatography in the second dimension in chromatography buffer (n-butanol:pyridine:acetic acid:water; 20:24:6:30). The plates were dried and phosphopeptides were visualized by autoradiography.

[6] = tested on: Akt phosphorylation; experiment: Immunoblot of Akt phosphorylation in HEK293 cells; type: cell-based, human; details: AMPK inhibitor treatment
Experimental: as §1

[7] = tested on: LEF (TSC2−/− epithelial) cells; experiment: Cell death / apoptosis of LEF cells (vector, TSC2, TSC2-3A); type: cell-based; details: vector and wild type TSC2 expressing LEF cells
Experimental: FIGS. 16a-16f show TSC2 plays roles in protecting cells from glucose depletion-induced apoptosis. […] LEF cells stably expressing vector, TSC2, or TSC2-3A were cultured in 25 mM glucose (G+) or glucose free medium (G−) with or without 20 nM rapamycin. Pictures were taken at 72 hours in culture. Note that the TSC2 wild type expressing cells are morphologically smaller. […] LEF cells stably expressing vector, TSC2 or TSC2-3A were cultured in glucose free medium with or without 20 nM rapamycin for 48 hours. Western blots with anti-cleaved-caspase-3 and actin are shown. […] EEF cells were cultured in glucose free medium with or without 20 nM rapamycin for 96 hours. […] The EEF4 and EEF8 cells were cultured in glucose free medium with or without 20 nM rapamycin for 72 hours. Western blots with cleaved-caspase-3 and actin are shown. […] The MEFs were cultured in glucose free medium for 48 hours. […] MEFs were cultured in glucose free medium with or without 20 nM rapamycin for 16 hours. Western blots with cleaved-caspase-3 and actin are shown.

[8] = tested on: EEF4 (TSC2+/+) cells; experiment: S6K and 4EBP1 phosphorylation in EEF4 (TSC2+/+) fibroblasts; type: cell-based
[9] = tested on: S6K-dC104; experiment: Phosphorylation and kinase activity of rapamycin-resistant S6K mutants (S6K-dC104, S6K-dNC); type: cell-based
Experimental: as §1
For the S6K assays, HEK293 cells grown in six-well plates were transfected with 10-20 ng HA-S6K constructs, with or without various plasmids, as indicated in the figures. HA-S6K was immunoprecipitated from serum-starved cells with an anti-HA antibody and analyzed by in vitro kinase assay using purified GST-S6 as a substrate (Pearson et al., EMBO J. 14:5279-5287 (1995)).

[10] = tested on: db/db mice; experiment: Diabetic nephropathy in db/db mice: glomerular morphometry, gene expression, urinary albumin; type: in vivo; details: rapamycin for 8 weeks from 16 weeks of age
Experimental: (§2) Mice were randomly divided into four groups as follows: nondiabetic db/+; nondiabetic db/+ treated with Rapamycin; diabetic db/db: and diabetic db/db treated with Rapamycin (2.0 mg/kg body weight, 3 days/week). Rapamycin was injected intraperitoneally (i.p.) from the age of 8 weeks to 25 weeks or 16 weeks to 25 weeks. Blood glucose levels and body weight were determined weekly in all animals. Mice were housed in a 12 hr light/dark cycle and temperature-controlled environment. Animal care and all experiments were conducted in accordance with the institutional guidelines of the Kyushu University Graduate School of Medicine.
Seventeen weeks after treatment with rapamycin (25 week of age), mice were deeply anesthetized, after perfusion with ice-cold PBS, the kidneys were perfused with 4% paraformaldehyde. […] To quantify mesangial expansion, sections were coded and read. […] The extent of increase in mesangial matrix (defined as mesangial area) was determined by the presence of PAS-positive and nuclei-free area in the mesangium; the glomerular surface area has been measured using standard measurements of glomerular tuft areas using a the computer program of Axiovision Auto Mesure.
At age 25 weeks, kidney was isolated from db/db and db/+ mice (n=10 for each group), and total RNA was purified. […] Data were normalized to GAPDH and analyzed by the comparative threshold cycle method. […]

[11] = tested on: db/db mice; type: in vivo; details: 16 weeks treatment
Experimental: m+/+ Lepr db (db/+) mice were obtained from The Charles River Japan and mated, +Lepr db/+ Lepr db mice (db/db) mice were generated.
as §2, with “Animal care and all experiments were conducted in accordance with the institutional guidelines of the Kyushu University Graduate School of Medicine.” left out
At age 25 weeks, kidney was isolated from db/db and db/+ mice (n=10 for each group), and total RNA was purified. The expression of fibronectin and α3-type IV collagen mRNA by real-time reverse transcriptase-polymerase chain reaction (RT-PCR), which was performed in an ABI 7700 sequence detector (Applied Biosystems), was quantified. […] For quantitative RT-PCR of UCP-1, BAT (brown adipose tissue) was isolated from 2 weeks rapamycin treated or untreated mice, primers used were described previously (see, e.g., Um S H, et al., Nature 431, 200-205, 2004; herein incorporated by reference in its entirety). Data were normalized to GAPDH and analyzed by the comparative threshold cycle method. […]
Data were expressed as the means±SEM. […]

[12] = biological target: GST-TSC2 fragment 1 (amino acids 910-1112) (UniProt P49816)
[13] = biological target: GST-TSC2 fragment 2 (amino acids 1357-1765) (UniProt P49816)
[14] = biological target: TSC2-F2 fragment (UniProt P49816)
[15] = biological target: TSC2 fragment containing S1345 (UniProt P49816)

In the case of `NC(=O)c1ncn([C@@H]2O[C@H](COP(=O)(O)O)[C@@H](O)[C@H]2O)c1N` [AICAR, 5-aminoimidazole-4-carboxyamide ribonucleotide], the “phosphorylation of eEF2” value [1] is listed as “increase phosphorylation”, the AMPK activation [2] is listed as “activate AMPK” and the S6K activity [3] is listed as “inhibit S6K activity”.

With `c1cc(-c2cnn3cc(-c4ccc(OCCN5CCCCC5)cc4)cnc23)ccn1` [Compound C] the “effect on 2-DG induced dephosphorylation of S6K” value ([4]; HEK 293, with 2-DG, listed as AMPK inhibitor) was “significantly reversed the inhibitory effect of 2-DG on S6K phosphorylation; also recorded: blocks the 2-DG induced dephosphorylation of S6K”, the “S6K dephosphorylation induced by glucose deprivation” value ([4]; glucose deprivation, listed as AMPK inhibitor) was “significantly blocked; also recorded: partially blocks” and the “mobility of TSC2 / 2-DG induced mobility shift” value [5] was “blocks the 2-DG induced mobility shift of TSC2”. The “mobility of TSC2 / 2-DG induced mobility shift” value ([5]; listed as compound C) was “increased the mobility of TSC2” and the Akt phosphorylation [6] was “had no effect”.

In the case of `COc1cc([C@@H]2c3cc4c(cc3[C@@H](O[C@@H]3O[C@@H]5CO[C@@H](C)O[C@H]5[C@H](O)[C@H]3O)[C@H]3COC(=O)[C@H]23)OCO4)cc(OC)c1O` [Etoposide], the cell death [7] is reported as “caused cell death in both vector and wild type TSC2 expressing cells”.

With `N#CC(C#N)=NNc1ccc(OC(F)(F)F)cc1` [FCCP] the “phosphorylation of S6K and 4EBP1” value [4] was “caused a dephosphorylation of S6K and 4EBP1” and the S6K phosphorylation [8] was “caused a decrease in S6K phosphorylation”.

In the case of `CC(=O)c1c(O)c(C)c(O)c(Cc2c(O)c3c(c(C(=O)/C=C/c4ccccc4)c2O)OC(C)(C)C=C3)c1O` [Rottlerin], the “phosphorylation of S6K and 4EBP1” value [4] is reported as “caused a dephosphorylation of S6K and 4EBP1” and the S6K phosphorylation [8] is reported as “caused a decrease in S6K phosphorylation”.

For `OC[C@@H](O)[C@@H](O)[C@H](O)[C@H](O)CO` [mannitol], the “phosphorylation of S6K on T389” value ([4]; 25 mM) was “had little effect” and the “phosphorylation of S6K” value ([4]; 100 mM) was “significantly inhibited”.

For `CO[C@H]1C[C@@H]2CC[C@@H](C)[C@@](O)(O2)C(=O)C(=O)N2CCCC[C@H]2C(=O)O[C@H]([C@H](C)C[C@@H]2CC[C@@H](O)[C@H](OC)C2)CC(=O)[C@H](C)/C=C(\C)[C@@H](O)[C@@H](OC)C(=O)[C@H](C)C[C@H](C)/C=C/C=C/C=C/1C` [rapamycin], the “phosphorylation of Thr 389 in S6K-dC104” value [9] was “not inhibited”, the “amount of albumin excreted relative to the starting point (16w; db/db)” value [10] was 60% and the “increase in oxygen consumption versus db/db untreated mice” value [11] was 3.27 folds.

For GST-Akt, the “in vitro phosphorylation by purified Akt” value [12] was “Wild-type Akt, but not the kinase-inactive Akt-KM mutant, efficiently phosphorylated both fragment 1 and fragment 2 of TSC2 in vitro” and the “in vitro phosphorylation by purified Akt” value [13] was “Wild-type Akt, but not the kinase-inactive Akt-KM mutant, efficiently phosphorylated both fragment 1 and fragment 2 of TSC2 in vitro”.

With “immunoprecipitated AMPK (in vitro kinase assay)” the “in vitro phosphorylation by immunoprecipitated AMPK” value [14] was “In vitro phosphorylation of the purified TSC2-F2 fragment by immunoprecipitated AMPK showed that AMPK specifically phosphorylates TSC2 on T1227” and the “in vitro phosphorylation by immunoprecipitated AMPK” value [15] was “The TSC2 fragment was phosphorylated by immunoprecipitated AMPK, but not the kinase inactive AMPK mutant”.
